Assay type in all cases: cell-based, human
In experiment [1] the test system is aSHF progenitors. Kind of experiment: Extended BMP agonist/antagonist treatment of aSHF progenitors, day 20 flow cytometry and cell numbers. Conditions: treatment extended additional 48 hours, then cultured 12 days; day 20 (FIGS. 5F and 5H). The method, then: Cells of early stages (day 3 to day 6) were dissociated with TrypLE for 3-5 minutes at room temperature to single cells, which were then filtered and transferred to IMDM media. Day 20 EBs were dissociated with 0.5 mg/ml collagenase type 2 (Worthington) in HANKs buffer for 1.5 hours at 37° C. The filtered day 20 cells were then transferred to FACS buffer consisting of PBS with 5% fetal calf serum (Wisent) and 0.02% sodium azide. The following antibodies were used for staining samples obtained from various stages of differentiation: anti-PDGFRa-PE (R&D Systems, 1:20), anti-CD235a/b-APC (BD PharMingen, 1:200), anti-SIRPa-PeCy7 (Biolegend, 1:2000), anti-CXCR4 (Biolegend, 1:100), anti-CDId-PE (Biolegend, 1:100), anti-CD49c-PE (ThermoFisher, 1:100), anti-cardiac isoform of CTNT (ThermoFisher Scientific, 1:2000), or anti-myosin light chain 2 (Abcam, 1:1000). For unconjugated primary antibodies, the following secondary antibodies were used for detection: goat anti-mouse IgG-APC (BD Pharmigen, 1:250), or donkey anti-rabbit IgG-PE (Jackson ImmunoResearch, 1:250). Detailed antibody information is described in Table 2.
To stain live cells with cell-surface protein, dissociated single cells were stained for 15 minutes at room temperature in FACS buffer and washed twice before they were subject to further analyses. For intracellular staining, cells were fixed for 15 min at 4° C. in PBS containing 4% PFA followed by permeabilization using 90% methanol for 15 min at 4° C. The permeabilized cells were washed with PBS containing 0.5% BSA (Sigma) twice and stained with unconjugated primary antibodies in FACS buffer for 18 hours at 4° C. Stained cells were washed with PBS with 0.5% BSA and stained with proper secondary antibodies in FACS buffer for 30 mins at 4° C. Following washing steps, stained cells were processed with the Fortessa (BD) and analyzed using FlowJo software (Tree Star). For cell sorting, stained cells were kept in StemPro-34 media and sorted using Influx (BD), FACSAriall (BD), MoFlo-XDP (BD) and FACSAria Fusion (BD). Data were analyzed using FlowJo software (Tree Star).
The above observation that the aSHF progenitors express genes involved in Bmp signaling is consistent with the known role of this pathway in the development of right ventricular cardiomyocytes from aSHF progenitors in the mouse. […] The notable exception is the genes for the ligands BMP2 and BMP4, which are also highly expressed in the FHF lineage (FIG. 5B). To determine if BMP plays a role in the differentiation of the aSHF progenitors to derivative lineages, the day 5 cells were treated with either a pathway agonist (10 ng/mL BMP4) or antagonist (0.1 μM LDN) and then the population was analyzed 24 hours after the treatments. FHF and pSHF progenitors were included in the analyses, and ROH was added to the cultures of pSHF and aSHF progenitor, given that both populations display ALDH activity. […] Inhibition of the pathway did, however, lead to upregulation of genes associated with pharyngeal progenitors (FOXC2 and SIX1) (FIG. 5D) and downregulation of those indicative of cardiomyocyte development (UNC45B and GATA4) (FIG. 5E). To further investigate the consequences of BMP manipulation, the agonist/antagonist treatment was extended for an additional 48 hours and then the treated cells were cultured for 12 days to promote cardiomyocyte development. FHF and pSHF progenitors also were cultured for 20 days without manipulation of BMP signaling. […]
A general note: In flow cytometry, cells or beads pass a laser one at a time.

A further experiment concerns aSHF cells. Kind of experiment: Extended BMP agonist/antagonist treatment of aSHF cells, day 20 RT-qPCR. Conditions: aSHF cells treated with LDN. Here is the method: (§1) RNA extraction was performed using the RNAqueous-micro Kit (Invitrogen). Purified RNA was treated with RNase-free DNase (Invitrogen), and then reverse transcribed into cDNA using oligo (dT) primers and random hexamers and iscript Reverse Transcriptase (ThermoFisher). QRT-PCR was performed on an EP Real-Plex MasterCycler (Eppendorf) using QuantiFast SYBR Green PCR kit (QIAGEN). The copy number of each gene was determined based on a standard curve plotted with human genome DNA with known copy number. The relative expression levels of genes were obtained by normalizing their copy number to that of TBP.
The above observation that the aSHF progenitors express genes involved in Bmp signaling is consistent with the known role of this pathway in the development of right ventricular cardiomyocytes from aSHF progenitors in the mouse. […] The notable exception is the genes for the ligands BMP2 and BMP4, which are also highly expressed in the FHF lineage (FIG. 5B). To determine if BMP plays a role in the differentiation of the aSHF progenitors to derivative lineages, the day 5 cells were treated with either a pathway agonist (10 ng/mL BMP4) or antagonist (0.1 μM LDN) and then the population was analyzed 24 hours after the treatments. […]
(Real-time PCR tracks product formation cycle by cycle.)

The subject of experiment [2] is aSHF progenitors. Kind of experiment: BMP pathway agonist/antagonist treatment of day 5 aSHF progenitors, RT-qPCR 24 hours after treatment. Conditions: for expression of genes indicative of aSHF (FGF8 and ISL1), pSHF (HOXB1) and FHF (HAND1) fates in the aSHF population: 10 ng/mL BMP4 or 0.1 μM LDN, ROH added, 24 hours after treatment (FIG. 5C). Here is the method:
as §1
The above observation that the aSHF progenitors express genes involved in Bmp signaling is consistent with the known role of this pathway in the development of right ventricular cardiomyocytes from aSHF progenitors in the mouse. […] The notable exception is the genes for the ligands BMP2 and BMP4, which are also highly expressed in the FHF lineage (FIG. 5B). To determine if BMP plays a role in the differentiation of the aSHF progenitors to derivative lineages, the day 5 cells were treated with either a pathway agonist (10 ng/mL BMP4) or antagonist (0.1 μM LDN) and then the population was analyzed 24 hours after the treatments. FHF and pSHF progenitors were included in the analyses, and ROH was added to the cultures of pSHF and aSHF progenitor, given that both populations display ALDH activity. […] Inhibition of the pathway did, however, lead to upregulation of genes associated with pharyngeal progenitors (FOXC2 and SIX1) (FIG. 5D) and downregulation of those indicative of cardiomyocyte development (UNC45B and GATA4) (FIG. 5E). To further investigate the consequences of BMP manipulation, the agonist/antagonist treatment was extended for an additional 48 hours and then the treated cells were cultured for 12 days to promote cardiomyocyte development. FHF and pSHF progenitors also were cultured for 20 days without manipulation of BMP signaling. All 3 progenitor populations generated TNNT2^+/SIRPa^+ cardiomyocytes by day 20 of differentiation (FIGS. 5F and 5G). In addition to the cardiomyocytes, the aSHF-derived population also contained PDGFR-beta^+ mesenchymal cells (FIG. 5F).

The test system of the next experiment is day 5 aSHF cells. Nature of the experiment: Retinol treatment of day 5 aSHF cells, RT-qPCR of RA-responsive genes. Conditions: ROH for 24 hours vs DMSO, RT-qPCR day 6 (FIG. 4J). The method, then:
At day 1, the EBs were transferred to mesoderm induction media consisting of base media, 5 ng/mL rhbFGF (R&D), and various concentration of rhBMP4 (R&D) and rhActivinA (R&D) as described in the results section. At day 3, the EBs were transferred to the media consisting of base media, 2 μM Wnt inhibitor IWP2 (TOCRIS) and 10 ng/ml rhVEGF (R&D). From day 5 to day 12, the EBs were transferred to base media with 5 ng/mL rhVEGF. From day 12 to day 20, the EBs were transferred to base media and cultured in a normoxic environment (5% CO2, 20% O2). For pSHF lineage differentiation, the day 4 sorted pSHF cells were treated with 2 μM Retinol (Sigma) from day 4 to day 8. […]
RNA extraction was performed using the RNAqueous-micro Kit (Invitrogen). […] QRT-PCR was performed on an EP Real-Plex MasterCycler (Eppendorf) using QuantiFast SYBR Green PCR kit (QIAGEN). The copy number of each gene was determined based on a standard curve plotted with human genome DNA with known copy number. […]
The pSHF lineage expressed ALDH1A2 and RDH10, from the day 3 mesoderm stage onward, whereas expression of these genes was not detected until day 4 of differentiation in the aSHF lineage (FIG. 4G). These patterns correlate well with ALDH activity, which was detected in more than 90% of the days 4 and 5 pSHF cells. […] ALDH was not detected in the day 5 FHF population. […]

Experiment [3] concerns day 4 pSHF cells (ALDH CXCR4−). Kind of experiment: Retinol treatment of isolated day 4 pSHF cells, RT-qPCR of progenitor markers. Conditions: retinol 2 μM vs DMSO, 24 hours. Here is the method:
At day 1, the EBs were transferred to mesoderm induction media consisting of base media, 5 ng/mL rhbFGF (R&D), and various concentration of rhBMP4 (R&D) and rhActivinA (R&D) as described in the results section. At day 3, the EBs were transferred to the media consisting of base media, 2 μM Wnt inhibitor IWP2 (TOCRIS) and 10 ng/ml rhVEGF (R&D). From day 5 to day 12, the EBs were transferred to base media with 5 ng/mL rhVEGF. From day 12 to day 20, the EBs were transferred to base media and cultured in a normoxic environment (5% CO2, 20% O2). For pSHF lineage differentiation, the day 4 sorted pSHF cells were treated with 2 μM Retinol (Sigma) from day 4 to day 8. Similarly, the sorted aSHF cells were treated with 2 μM Retinol and 10 ng/mL rhBMP4 from day 5 to day 8 of differentiation.
as §1, with “TBP. […]” for “TBP.”

For the molecule `c1ccc2c(-c3cnn4cc(-c5ccc(N6CCNCC6)cc5)cnc34)ccnc2c1` [LDN, LDN 193189], in the experiment on aSHF progenitors [1], the “PDGFR-beta+ cells in the aSHF-derived population (number / size of fraction)” value is recorded as “increased” and the “proportion of cardiomyocytes in the aSHF-derived population” value was “reduced”. In the experiment with aSHF cells, the “expression of the ventricular cardiomyocyte markers IRX4 and MY1.2” value is “decrease”; the “levels of PDGFRB” value is “elevated”. Further, the “expression of genes indicative of aSHF (FGF8 and ISL1), pSHF (HOXB1) and FHF (HAND1) fates in the aSHF population” value in the experiment on aSHF progenitors [2] is recorded as “did not alter”. Moreover, in the experiment with aSHF progenitors [2] (0.1 μM LDN, 24 hours after treatment (FIG. 5D)), the “expression of genes associated with pharyngeal progenitors (FOXC2 and SIX1)” value was “upregulation”. In the experiment on aSHF progenitors [2] (0.1 μM LDN, 24 hours after treatment (FIG. 5E)), the “expression of genes indicative of cardiomyocyte development (UNC45B and GATA4)” value is recorded as “downregulation”.
On to `CC1=C(/C=C/C(C)=C/C=C/C(C)=C/CO)C(C)(C)CCC1` [ROH, Retinol], for which, in the experiment on day 5 aSHF cells, the “expression of the RA-responsive gene CYP26A1 and HOXB1” value is reported as “upregulation”. The “expression of the RA responsive gene CYP26A1 and the pSHF progenitor markers HOXA1 and HOXB1” value in experiment [3] (RT-qPCR (FIG. 3H)) is on record as “upregulation”. For the same molecule, the “expression of aSHF progenitor markers FGF10, FOXC1 and FOXC2” value in experiment [3] (RT-qPCR (FIG. 3I)) was “downregulated”.

B1: BMP4: Recombinant human BMP4 (R&D), BMP pathway agonist (protein, UniProt P12644 293-408, looked up)
Bone morphogenetic protein 4: SPKHHSQRARKKNKNCRRHSLYVDFSDVGWNDWIVAPPGYQAFYCHGDCPFPLADHLNSTNHAIVQTLVNSVNSSIPKACCVPTELSAISMLYLDEYDKVVLKNYQEMVVEGCGCR
For the molecule B1, in the experiment with aSHF progenitors [1], the “PDGFR-beta+ cells in the aSHF-derived population (number / size of fraction)” value is recorded as “reducing”, the “number of cardiomyocytes in the aSHF-derived population” value is on record as “increased” and the “proportion of cardiomyocytes in the aSHF-derived population” value is on record as “increased”. Also, the “expression of genes indicative of aSHF (FGF8 and ISL1), pSHF (HOXB1) and FHF (HAND1) fates in the aSHF population” value in the experiment with aSHF progenitors [2] was “did not alter”.

The values are drawn from patent publication US20250320458A1, “CARDIOMYOCYTE SUBTYPES AND METHODS OF MAKING AND USING” (University Health Network, priority 2021, published 2025).
